The values below come from patent US10538498B2, “1,3,4-oxadiazole sulfonamide derivative compounds as histone deacetylase 6 inhibitor, and the pharmaceutical composition comprising the same” (Chong Kun Dang Pharmaceutical Corp., priority 2015, dated 2020).

One may read the IC50 as the midpoint of a concentration-inhibition curve.

This experiment deals with T1, human recombinant HDAC6 (Homo sapiens, UniProt Q9UBN7).
T1 construct: purchased Calbiochem 382180
T1 sequence (Q9UBN7 1-1215): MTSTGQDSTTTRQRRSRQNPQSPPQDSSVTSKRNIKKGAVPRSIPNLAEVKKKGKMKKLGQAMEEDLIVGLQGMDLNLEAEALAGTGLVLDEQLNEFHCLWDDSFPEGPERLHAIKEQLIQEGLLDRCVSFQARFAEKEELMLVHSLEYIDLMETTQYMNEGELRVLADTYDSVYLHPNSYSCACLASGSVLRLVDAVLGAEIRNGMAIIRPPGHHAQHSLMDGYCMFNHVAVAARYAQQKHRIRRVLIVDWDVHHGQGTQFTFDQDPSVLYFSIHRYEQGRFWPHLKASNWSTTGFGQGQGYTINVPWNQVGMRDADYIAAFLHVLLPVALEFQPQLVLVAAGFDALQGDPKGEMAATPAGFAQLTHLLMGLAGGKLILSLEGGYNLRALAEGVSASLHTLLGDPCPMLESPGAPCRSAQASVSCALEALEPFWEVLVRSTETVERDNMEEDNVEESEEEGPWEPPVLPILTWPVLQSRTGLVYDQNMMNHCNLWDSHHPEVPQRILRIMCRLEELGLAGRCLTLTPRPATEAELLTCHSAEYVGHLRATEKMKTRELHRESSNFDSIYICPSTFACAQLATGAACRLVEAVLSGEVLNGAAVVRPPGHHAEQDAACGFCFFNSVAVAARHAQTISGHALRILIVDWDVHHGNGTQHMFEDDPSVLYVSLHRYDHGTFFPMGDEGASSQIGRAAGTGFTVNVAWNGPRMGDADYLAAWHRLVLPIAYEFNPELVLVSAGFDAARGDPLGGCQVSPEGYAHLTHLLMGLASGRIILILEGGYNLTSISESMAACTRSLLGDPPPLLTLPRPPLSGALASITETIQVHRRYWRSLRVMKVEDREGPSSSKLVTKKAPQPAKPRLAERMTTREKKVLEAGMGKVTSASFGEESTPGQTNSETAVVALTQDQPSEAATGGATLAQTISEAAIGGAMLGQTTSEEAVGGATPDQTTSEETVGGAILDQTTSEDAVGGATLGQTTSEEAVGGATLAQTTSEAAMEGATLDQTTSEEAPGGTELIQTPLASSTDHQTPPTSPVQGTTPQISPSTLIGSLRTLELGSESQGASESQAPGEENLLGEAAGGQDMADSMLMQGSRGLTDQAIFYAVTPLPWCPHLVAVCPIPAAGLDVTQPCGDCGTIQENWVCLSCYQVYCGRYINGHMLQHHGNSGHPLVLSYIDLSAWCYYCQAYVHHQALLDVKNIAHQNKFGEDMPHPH
In words: HDAC6 enzyme activity inhibition assay (HDAC Fluorimetric Drug Discovery Kit). The class given is biochemical. Conditions: for HDAC6 selectivity (fold): HDAC1 vs HDAC6; for IC50: same protocol as the HDAC1 enzyme activity test. In outline:
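Both isoforms are run by an identical fluorimetric protocol: deacetylation of 10 μM Fluor de Lys-SIRT1 substrate by 0.3 μg recombinant enzyme over 60 min at 30° C, in the presence of 5-fold compound dilutions. Signal is developed for 30 min and read at Ex 360/Em 460 to derive IC50.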

On to `CCN1CCC(S(=O)(=O)N(Cc2ccc(-c3nnc(C(F)F)o3)cn2)c2ccccc2)CC1` [Compound 11368, N-((5-(5-(difluoromethyl)-1,3,4-oxadiazol-2-yl)pyridin-2-yl)methyl)-1-ethyl-N-phenylpiperidine-4-sulfonamide], for which the “HDAC6 selectivity (fold)” value is listed as 6667 fold and the IC50 came out at 15 nM.

With `CS(=O)(=O)N(Cc1ccc(-c2nnc(C(F)F)o2)cn1)c1ccc(F)c(Cl)c1` [Compound 11433, N-(3-chloro-4-fluorophenyl)-N-((5-(5-(difluoromethyl)-1,3,4-oxadiazol-2-yl)pyridin-2-yl)methyl)methanesulfonamide], the “HDAC6 selectivity (fold)” value is listed as 8333 fold and the IC50 worked out at 12 nM.

In the case of `Cc1nn(C)c2ccc(N(Cc3ccc(-c4nnc(C(F)F)o4)cc3)S(C)(=O)=O)cc12` [Compound 11746, N-(4-(5-(difluoromethyl)-1,3,4-oxadiazol-2-yl)benzyl)-N-(1,3-dimethyl-1H-indazol-5-yl)methanesulfonamide], the “HDAC6 selectivity (fold)” value is on record as 784 fold and the IC50 was 127 nM.

Turning to `O=S(=O)(CCN1CC(O)C1)N(Cc1ccc(-c2nnc(C(F)F)o2)cc1)c1ccccc1` [Compound 11799, N-(4-(5-(difluoromethyl)-1,3,4-oxadiazol-2-yl)benzyl)-2-(3-hydroxyazetidine-1-yl)-N-phenylethane-1-sulfonamide], the “HDAC6 selectivity (fold)” value came to 516 fold and the half-maximal inhibitory concentration (IC50) came out at 194 nM.

For the molecule `CS(=O)(=O)N1CCN(CCS(=O)(=O)N(Cc2ccc(-c3nnc(C(F)F)o3)cc2)c2ccccc2)CC1` [Compound 11634, N-(4-(5-(difluoromethyl)-1,3,4-oxadiazol-2-yl)benzyl)-2-(4-(methylsulfonyl)piperazin-1-yl)-N-phenylethane-1-sulfonamide], the “HDAC6 selectivity (fold)” value came to 2083 fold and the IC50 is 48 nM.

Take `CS(=O)(=O)N(Cc1ccc(-c2nnc(C(F)F)o2)cc1F)c1ccc2ncsc2c1` [Compound 11775, N-(benzo[d]thiazol-6-yl)-N-(4-(5-(difluoromethyl)-1,3,4-oxadiazol-2-yl)-2-fluorobenzyl)methanesulfonamide]: the “HDAC6 selectivity (fold)” value was determined as 2906 fold and the IC50 was 34.4 nM.

For `CS(=O)(=O)N(Cc1ccc(-c2nnc(C(F)(F)F)o2)cc1F)c1cccc(F)c1` [Compound 11181, N-(2-fluoro-4-(5-(trifluoromethyl)-1,3,4-oxadiazol-2-yl)benzyl)-N-(3-fluorophenyl)methanesulfonamide], the “HDAC6 selectivity (fold)” value was 3030 fold and the IC50 came out at 33 nM.

In the case of `O=S(=O)(CCN1CCN(c2ccc(Cl)c(Cl)c2)CC1)N(Cc1ccc(-c2nnc(C(F)F)o2)cc1)c1ccccc1` [Compound 11770, 2-(4-(3,4-dichlorophenyl)piperazin-1-yl)-N-(4-(5-(difluoromethyl)-1,3,4-oxadiazol-2-yl)benzyl)-N-phenylethane-1-sulfonamide], the “HDAC6 selectivity (fold)” value is listed as 112 fold and the IC50 turned out to be 886 nM.

In the case of `CN1CCC(S(=O)(=O)N(Cc2ccc(-c3nnc(C(F)F)o3)cn2)c2ccccc2)CC1` [Compound 11367, N-((5-(5-(difluoromethyl)-1,3,4-oxadiazol-2-yl)pyridin-2-yl)methyl)-1-methyl-N-phenylpiperidine-4-sulfonamide], the “HDAC6 selectivity (fold)” value came out at 6250 fold and the IC50 was 16 nM.

In the case of `O=S(=O)(CCN1CCN(CCO)CC1)N(Cc1ccc(-c2nnc(C(F)F)o2)cc1)c1ccccc1` [Compound 11717, N-(4-(5-(difluoromethyl)-1,3,4-oxadiazol-2-yl)benzyl)-2-(4-(2-hydroxyethyl)piperazin-1-yl)-N-phenylethanesulfonamide], the “HDAC6 selectivity (fold)” value stood at 879 fold and the IC50 is 114 nM.

Consider `CC(=O)N1CCN(CCS(=O)(=O)N(Cc2ccc(-c3nnc(C(F)F)o3)cc2F)c2ccc(F)c(Cl)c2)CC1` [Compound 11553, 2-(4-acetylpiperazin-1-yl)-N-(3-chloro-4-fluorophenyl)-N-(4-(5-(difluoromethyl)-1,3,4-oxadiazol-2-yl)-2-fluorobenzyl)ethane-1-sulfonamide], for which the “HDAC6 selectivity (fold)” value came out at 5882 fold and the IC50 amounted to 17 nM.

Turning to `CS(=O)(=O)N(Cc1ccc(-c2nnc(C(F)F)o2)cn1)c1ccc2c(c1)OCO2` [Compound 11345, N-(benzo[d][1,3]dioxol-5-yl)-N-((5-(5-(difluoromethyl)-1,3,4-oxadiazol-2-yl)pyridin-2-yl)methyl)methanesulfonamide], the “HDAC6 selectivity (fold)” value turned out to be 3571 fold and the IC50 worked out at 28 nM.

Consider `Cc1cccc(N(Cc2ccc(-c3nnc(C(F)F)o3)cc2F)S(C)(=O)=O)c1` [Compound 11178, N-(4-(5-(difluoromethyl)-1,3,4-oxadiazol-2-yl)-2-fluorobenzyl)-N-(m-tolyl)methanesulfonamide], for which the “HDAC6 selectivity (fold)” value was 5000 fold and the IC50 was 20 nM.

Consider `COc1ccc(N(Cc2ccc(-c3nnc(C(F)F)o3)cn2)S(C)(=O)=O)cc1` [Compound 11346, N-((5-(5-(difluoromethyl)-1,3,4-oxadiazol-2-yl)pyridin-2-yl)methyl)-N-(4-methoxyphenyl)methanesulfonamide], for which the “HDAC6 selectivity (fold)” value was determined as 4348 fold and the 50% inhibitory concentration (IC50) was found to be 23 nM.

`CCS(=O)(=O)N(Cc1ccc(-c2nnc(C(F)F)o2)cc1F)c1cccc(C2CCN(C)CC2)c1` [Compound 11427, N-(4-(5-(difluoromethyl)-1,3,4-oxadiazol-2-yl)-2-fluorobenzyl)-N-(3-(1-methylpiperidin-4-yl)phenyl)ethanesulfonamide]: the “HDAC6 selectivity (fold)” value was found to be 352 fold and the IC50 was found to be 284 nM.

As for `CS(=O)(=O)N(Cc1ccc(-c2nnc(C(F)F)o2)cc1)c1ncco1` [Compound 11741, N-(4-(5-(difluoromethyl)-1,3,4-oxadiazol-2-yl)benzyl)-N-(oxazol-2-yl)methanesulfonamide], the “HDAC6 selectivity (fold)” value came out at 57 fold and the IC50 was found to be 1740 nM.

As for `C[C@@H]1CN(CCCS(=O)(=O)N(Cc2ccc(-c3nnc(C(F)F)o3)cc2)c2ccccc2)C[C@H](C)N1C` [Compound 11665, N-(4-(5-(difluoromethyl)-1,3,4-oxadiazol-2-yl)benzyl)-N-phenyl-3-((3R,5S)-3,4,5-trimethylpiperazin-1-yl)propane-1-sulfonamide], the “HDAC6 selectivity (fold)” value stood at 5263 fold and the IC50 was determined as 19 nM.

Consider `CS(=O)(=O)N(Cc1ccc(-c2nnc(C(F)(F)F)o2)cc1F)c1ccc(F)cc1` [Compound 11275, N-(2-fluoro-4-(5-(trifluoromethyl)-1,3,4-oxadiazol-2-yl)benzyl)-N-(4-fluorophenyl)methanesulfonamide], for which the “HDAC6 selectivity (fold)” value amounted to 1370 fold and the IC50 amounted to 73 nM.

`O=S(=O)(C1CCOC1)N(Cc1ccc(-c2nnc(C(F)F)o2)cn1)c1ccccc1` (stereo not drawn) [Compound 11428, N-((5-(5-(difluoromethyl)-1,3,4-oxadiazol-2-yl)pyridin-2-yl)methyl)-N-phenyltetrahydrofuran-3-sulfonamide]: the “HDAC6 selectivity (fold)” value is on record as 6667 fold and the IC50 was 15 nM.

With `CS(=O)(=O)N(Cc1ccc(-c2nnc(C(F)F)o2)cc1)CC12CC3CC(CC(C3)C1)C2` [Compound 11668, N-((adamantan-1-yl)methyl)-N-(4-(5-(difluoromethyl)-1,3,4-oxadiazol-2-yl)benzyl)methanesulfonamide], the “HDAC6 selectivity (fold)” value is given as 724 fold and the IC50 is 138 nM.

`C[C@@H]1CN(CCS(=O)(=O)N(Cc2ccc(-c3nnc(C(F)F)o3)cc2)c2ccccc2)C[C@H](C)N1` [Compound 11632, N-(4-(5-(difluoromethyl)-1,3,4-oxadiazol-2-yl)benzyl)-2-((3S,5R)-3,5-dimethylpiperazin-1-yl)-N-phenylethane-1-sulfonamide]: the “HDAC6 selectivity (fold)” value was 1587 fold and the IC50 was determined as 63 nM.
